According to patent US5658906A, “Cysteine protease and serine protease inhibitors” (Cephalon, Inc., priority 1996, dated 1997):

Columns and labels:
Calpain I = target: T1, Calpain I (Homo sapiens, UniProt P07384); assay: Inhibition and rate of inactivation of calpain I (Succ-Leu-Tyr-MNA hydrolysis); assay type: biochemical; details: mean of three or more independent analyses, corrected for substrate, k2 = kapp(1+[S]/Km), read-out: k2 (second order rate constant of inactivation), A = Calpain I
T1 construct: Calpain I was purified from human red blood cells; from tissue; host or cells: human red blood cells (packed, outdated)
T1 sequence (P07384 1-714): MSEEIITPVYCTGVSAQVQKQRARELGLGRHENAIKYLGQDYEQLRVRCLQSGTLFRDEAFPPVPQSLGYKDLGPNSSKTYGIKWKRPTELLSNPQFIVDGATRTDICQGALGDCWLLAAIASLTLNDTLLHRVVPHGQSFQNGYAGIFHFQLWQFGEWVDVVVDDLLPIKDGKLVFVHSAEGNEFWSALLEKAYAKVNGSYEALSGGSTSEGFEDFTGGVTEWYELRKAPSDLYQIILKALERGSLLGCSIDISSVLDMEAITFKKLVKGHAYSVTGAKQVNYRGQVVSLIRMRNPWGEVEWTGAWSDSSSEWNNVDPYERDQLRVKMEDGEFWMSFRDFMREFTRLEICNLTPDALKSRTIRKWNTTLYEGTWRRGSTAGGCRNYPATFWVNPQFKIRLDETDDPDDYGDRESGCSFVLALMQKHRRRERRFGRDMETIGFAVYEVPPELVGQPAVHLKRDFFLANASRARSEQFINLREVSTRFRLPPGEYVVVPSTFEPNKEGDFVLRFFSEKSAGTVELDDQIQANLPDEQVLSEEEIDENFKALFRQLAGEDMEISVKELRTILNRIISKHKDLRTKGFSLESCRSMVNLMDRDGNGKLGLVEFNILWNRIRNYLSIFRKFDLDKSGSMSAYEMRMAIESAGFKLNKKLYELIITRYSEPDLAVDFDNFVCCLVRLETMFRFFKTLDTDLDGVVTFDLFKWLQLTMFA
T1 sequence (P04632 1-268 partner): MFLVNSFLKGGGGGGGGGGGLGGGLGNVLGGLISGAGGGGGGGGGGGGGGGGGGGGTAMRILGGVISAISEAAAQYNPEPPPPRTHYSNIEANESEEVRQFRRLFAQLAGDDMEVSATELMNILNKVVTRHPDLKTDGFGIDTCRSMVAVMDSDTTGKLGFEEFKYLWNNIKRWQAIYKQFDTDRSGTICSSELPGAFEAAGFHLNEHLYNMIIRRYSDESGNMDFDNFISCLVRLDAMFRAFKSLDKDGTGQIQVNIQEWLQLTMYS
Method: To evaluate inhibitory activity of our compounds, stocks (40 times concentrated) of each compound to be tested were prepared in 100% anhydrous dimethyl sulfoxide (DMSO) and 5 μl of each inhibitor preparation was aliquoted into each of three wells of a 96 well plate. Calpain I was purified from human red blood cells using a modification of the method described by Lee, W. J. et al. (Biochem. Internatl. (1990)22(1): 163-171). Briefly, 3 units of packed outdated red blood cells were washed 3× by repeated centrifugation at 500 rpm for 10 minutes through 900 mls of 0.9% NaCl. Cells were lysed in 20 mM Tris/1 mM EDTA/1 mM EGTA/5 mM mercaptoethanol (Buffer A) and centrifuged for 1 hour at 12,000 rpm in a GSA rotor using a Sorval centrifuge. The supernatant was collected and applied to a DEAE-sepharose FF column equilibrated in Buffer A+25 mM NaCl. After washing the column in Buffer A+25 mM NaCl, the bound protein was eluted at 117 ml/hr with a 25 mM to 150 mM NaCl linear gradient in Buffer A collecting 200, 10 mL fractions. Two μl of every fifth fraction was applied to nitrocelluose using a dot blot apparatus and calpain containing fractions identified by Western analysis. For detection of calpain, nitrocellulose sheets were first blocked in 5% Blotto (5% Carnation instant milk/10 mM Tris/[…]150 mM NaCl) for 30 minutes, followed by incubation for 1 hour in antibody directed against Calpain I (rabbit anti-human calpain I polyclonal sera, 1:1000 dilution in 5% Blotto). After three 5 minutes washes in 10 mM Tris/150 mM NaCl/0.05% Tween 20 the nitrocellulose was incubated for 1 hour in secondary alkaline phosphatase conjugated antibody (Biorad Cat#170-6518 1:2000 in 5% Blotto). After three 5 minutes washes in 10 mM Tris/150 mM NaCl/0.05% Tween 20 and 1 wash in 10 mM Tris/150 mM NaCl the nitrocellulose was incubated for up to 2 hours in a colorimetric substrate solution (Biorad Alkaline Phosphatase Substrate conjugate kit, cat#170-6432). The reaction was stopped by washing in water. After fractions containing calpain, and those in between, were pooled, solid ammonium sulfate was added to achieve a 30% solution and the mixture stirred for 1 hour at 4° C. Following collection of the precipitate by centrifugation for 1 hour at 4° C. at 12K rpm in a GSA rotor, the supernatant was collected and brought to 45% in ammonium sulfate. After stirring for 1 hour at 4° C., centrifugation was repeated. The supernatant was discarded and the precipitate resuspended in approximately 7 mls and dialyzed overnight at 4° C. against Buffer A+50 mM NaCl. The sample was then applied to a S300 gel filtration column preequilibrated in Buffer A+50 mM NaCl, washed and eluted at a flow rate of 20 ml/hr, collecting 200, 4 ml fractions. The peak of calpain was determined by assaying aliquots of every fifth fraction for enzyme activity monitored by the hydrolysis of a fluorogenic dipeptide substrate as described below. The peak fractions were pooled and the enzyme preparation used to test compounds for inhibitory activity. As an alternate to enzyme isolated from tissue sources, recombinant human calpain I has also been used to monitor compounds for inhibitory activity.
The foregoing enzyme preparation was diluted into assay buffer (i.e., 50 mM Tris, 50 mM NaCl, 1 mM EDTA, 1 mM EGTA, and 5 mM β-mercaptoethanol, pH 7.5 including 0.2 mM Succ-Leu-Tyr-MNA) and 175 μl aliquoted into the same wells containing the independent inhibitor stocks as well as to positive control wells containing 5 μl DMSO, but no compound. To start the reaction, 20 μl of 50 mM CaCl2 in assay buffer was added to all wells of the plate, excepting three, which were used as background signal baseline controls. Substrate hydrolysis was monitored every 5 minutes for a total of 30 minutes using Flouroskan II (ex=340 nm; em=430 nm). Substrate hydrolysis in the absence of inhibitor was linear for up to 15 minutes. […]

Cathepsin B = target: T2, Cathepsin B (Homo sapiens, UniProt P07858); assay: Inhibition and rate of inactivation of cathepsin B (Cbz-Phe-Arg-AMC hydrolysis); assay type: biochemical; details: pH 6.0, 0.1 mM substrate, read-out: k2 (second order rate constant of inactivation), C = Cathepsin B
T2 construct: purchased Calbiochem 219364
Method: Additionally, the order of reagents added to the plate was altered because both enzymes are constitutively active. Following inhibitor addition to the plates appropriate 2× concentrated stock dilutions of the enzyme preparations were made in assay buffer and 100 ul added to each well. The assay was initiated by addition of 100 ul of 2× concentrated stock dilution of substrate in assay buffer. Substrate hydrolysis was monitored using a Fluroskan II (ex=390 nm; em=460 nm).
Inhibition of enzyme activity was calculated as the percent decrease in the rate of substrate hydrolysis in the presence of inhibitor (.upsilon.i) relative to the rate in its absence (.upsilon.o). Comparison between .upsilon.o and .upsilon.i was made within the linear range for substrate hydrolysis. For screening, compounds were tested at 10 μM. Compounds having ≥50% inhibition at 10 μM were considered active. Apparent second order rate constants were determined from analysis of reaction progress curves under pseudo-first order conditions. Each determination represents the mean of three or more independent single cuvette analyses continually monitored via a Perkin-Elmer LS50B spectrofluorimeter. The rate of inhibition of hydrolysis was obtained by fitting the curve to the exponential equation (1):
y=Ae^-k.spsb.obs·t +B (1)
where y (Pt) is the product formed at time t. A and B are constants. A, the amplitude of the reaction, is given by [Po -P.varies. ] and B (=P.varies.) is the maximal product formed when the reaction is […]. This was corrected for the presence of equation (2): […]

Row | Structure (SMILES) | kinact/KI (Calpain I) | kinact/KI (Cathepsin B)
1 | Cc1cc2c(cc1Cl)nnn2OCC(=O)[C@H](Cc1ccccc1)NC(=O)[C@H](CC(C)C)NC(=O)OCc1ccccc1 [Example 13, 1-[N-[N-Benzyloxycarbonyl-L-leucyl]-3S-4-phenyl-3-amino-2-oxobutyloxy]-5'-chloro-6'methylbenzotriazole] | 116000 M⁻¹ s⁻¹ | 29000 M⁻¹ s⁻¹
2 | CC(C)C[C@H](NC(=O)OCc1ccccc1)C(=O)N[C@@H](Cc1ccccc1)C(=O)COn1nnc2c(Cl)cccc21 [Example 14, 1-[N-[N-Benzyloxycarbonyl-L-leucyl]-3S-4-phenyl-3-amino-2-oxybutyloxy]-4'-chlorobenzotriazole] | 157000 M⁻¹ s⁻¹ | 
3 | CC(C)C[C@H](NC(=O)OCc1ccccc1)C(=O)N[C@@H](Cc1ccccc1)C(=O)COn1nnc2ccc(-c3ccccc3)cc21 [Example 15, 1-[N-[N-Benzyloxycarbonyl-L-leucyl]-3S-4-phenyl-3-amino-2-oxybutyloxy]-6'-phenylbenzotriazole] | 77000 M⁻¹ s⁻¹ | 16000 M⁻¹ s⁻¹
4 | CC(C)C[C@H](NC(=O)OCc1ccccc1)C(=O)N[C@@H](Cc1ccccc1)C(=O)COn1nnc2cc(Cl)ccc21 [Example 17, 1-[N-[N-Benzyloxycarbonyl-L-leucyl]-3S-4-phenyl-3-amino-2-oxybutyloxy]-5'-chlorobenzotriazole] | 164000 M⁻¹ s⁻¹ | 
5 | CC(C)C[C@H](NC(=O)OCc1ccccc1)C(=O)N[C@@H](Cc1ccccc1)C(=O)COn1nnc2cc(Cl)c(Cl)cc21 [Example 18, 1-[N-[N-Benzyloxycarbonyl-L-leucyl]-3S-4-phenyl-3-amino-2-oxybutyloxy]-5',6'-dichlorobenzotriazole] | 65000 M⁻¹ s⁻¹ | 115000 M⁻¹ s⁻¹
6 | CC(C)C[C@H](NC(=O)OCc1ccccc1)C(=O)N[C@@H](Cc1ccccc1)C(=O)COn1nnc2c(Cl)c(Cl)c(Cl)c(Cl)c21 [Example 20, 1-[N-[N-Benzyloxycarbonyl-L-leucyl]-3S-4-phenyl-3-amino-2-oxybutyloxy]-4',5'6',7'-tetrachlorobenzotriazole] | 1300 M⁻¹ s⁻¹ | 
7 | CC(C)C[C@H](NC(=O)OCc1ccccc1)C(=O)N[C@@H](Cc1ccccc1)C(=O)COn1nnc2c(Cl)cc(Cl)c(Cl)c21 [Example 21, 1-[N-[N-Benzyloxycarbonyl-L-leucyl]-3S-4-phenyl-3-amino-2-oxybutyloxy]-4',6',7'-trichlorobenzotriazole] | 1800 M⁻¹ s⁻¹ | 10000 M⁻¹ s⁻¹
8 | CC(C)C[C@H](NC(=O)OCc1ccccc1)C(=O)N[C@@H](Cc1ccccc1)C(=O)COn1nnc2c(Cl)c(Cl)ccc21 [Example 23, 1-[N-[N-Benzyloxycarbonyl-L-leucyl]-3S-4-phenyl-3-amino-2-oxybutyloxy]-4',5'-dichlorobenzotriazole] | 64000 M⁻¹ s⁻¹ | 
9 | CCc1cc2c(cc1Cl)nnn2OCC(=O)[C@H](Cc1ccccc1)NC(=O)[C@H](CC(C)C)NC(=O)OCc1ccccc1 [Example 24, 1-[N-[N-Benzyloxycarbonyl-L-leucyl]-3S-4-phenyl-3-amino-2-oxybutyloxy]-5'-chloro-6'-ethylbenzotriazole] | 84000 M⁻¹ s⁻¹ | 30000 M⁻¹ s⁻¹
10 | Cc1ccc2nnn(OCC(=O)[C@H](Cc3ccccc3)NC(=O)[C@H](CC(C)C)NC(=O)OCc3ccccc3)c2c1 [Example 26, 1-[N-[N-Benzyloxycarbonyl-L-leucyl]-3S-4-phenyl-3-amino-2-oxobutyloxy]-6'-methylbenzotriazole] | 112000 M⁻¹ s⁻¹ | 
11 | Cc1ccc2c(c1)nnn2OCC(=O)[C@H](Cc1ccccc1)NC(=O)[C@H](CC(C)C)NC(=O)OCc1ccccc1 [Example 27, 1-[N-[N-Benzyloxycarbonyl-L-leucyl]-3S-4-phenyl-3-amino-2-oxobutyloxy]-5'-methylbenzotriazole] | 230000 M⁻¹ s⁻¹ | 
12 | COc1cc2nnn(OCC(=O)[C@H](Cc3ccccc3)NC(=O)[C@H](CC(C)C)NC(=O)OCc3ccccc3)c(=O)c2cc1OC [Example 29, 1-[N-[N-Benzyloxycarbonyl-L-leucyl]-3S-4-phenyl-3-amino-2-oxobutyloxy]-3-(6',7'-dimethoxy)benzotriazin-4-one] | 171000 M⁻¹ s⁻¹ | 
13 | CC(C)C[C@H](NC(=O)OCc1ccccc1)C(=O)N[C@@H](Cc1ccccc1)C(=O)COn1nnc2ccc(Cl)cc2c1=O [Example 30, 1-[N-[N-Benzyloxycarbonyl-L-leucyl]-3S-4-phenyl-3-amino-2-oxobutyloxy]-3-(6'-chloro)benzotriazin-4-one] | 180000 M⁻¹ s⁻¹ | 
14 | CC(C)C[C@H](NC(=O)[C@H](CC(C)C)NC(=O)OCc1ccccc1)C(=O)COn1nnc2ccccc2c1=O [Example 31, 1-[N-[N-Benzyloxycarbonyl-L-leucyl]-3S-5-methyl-3-amino-2-oxohexyloxy]-3-benzotriazin-4-one] | 46000 M⁻¹ s⁻¹ | 
15 | CC[C@H](C(=O)C[C@@H](CC(C)C)C(=O)N[C@@H](Cc1ccccc1)C(=O)COn1nnc2ccccc21)c1ccccc1 [Example 46, 1-[N-[2R-(2-methylpropyl)-1,4-dioxo-5S-phenylheptan-1-yl]-3S-3-amino-2-oxo-4-phenylbutyloxy]benzotriazole] | 3000 M⁻¹ s⁻¹ | 
